Patent US20240327430A1 (Breakpoint Therapeutics GmbH, priority 2023, published 2024)
pIC50: −log10 of the molar value.

target: truncated Polθ protein (Polθ-Hel containing the helicase domain (67-894)) (Homo sapiens (Human), UniProt O75417); assay: Polθ ATPase assay (Biological Assay 1, ADP-Glo luminescence); type: biochemical; settings: Polθ-Hel 0.5 nM, DNA substrate 500 nM, ATP 60 μM, 23° C.; read-out: Pole ATPase assay IC50
Experimental: The Polθ ATPase assay was used to evaluate inhibitors of Polθ ATPase activity, in vitro. Experiments were performed using a truncated Polθ protein (Polθ-Hel containing the helicase domain (67-894), ATP and a DNA single strand Oligo (5′-CTGTCCTGCATGATG-3′) in the Polθ assay buffer (20 mM Tis-HCl (pH 8.8), MgCl2 5 mM, tween20 0.01%, NP40 0.01%, BSA 0.01%, DTT 1 mM). 2 μL of assay buffer containing Pole-Hel protein (0.5 nM) and DNA substrate (500 nM) was transferred into assay ready plates, containing 0.04 μL of compounds diluted in DMSO. After a 30 minutes incubation at 23° C. in the dark, the reaction was triggered by adding 2 μL of ATP (60 μM), in assay buffer. After 60 minutes at 23° C., 4 μl of ADP-Glo™ Reagent (Glo 1) was added followed by 40 minutes of incubation, then 8 μl of ADP-Glom kinase Detection Reagent (Glo 2) followed by 60 minutes of incubation at 23° C. Luminescence was then measured using Tecan F200 infinite plate reader. Raw data were analysed using GeneData to generate IC50 values.
The Polθ ATPase assay described in Biological Assay 1 above was used to evaluate inhibitors of Polθ ATPase activity for the compounds described in the Experimental Part B above, in vitro.

truncated Polθ protein (Polθ-Hel containing the helicase domain (67-894)), sequence (O75417 67-894): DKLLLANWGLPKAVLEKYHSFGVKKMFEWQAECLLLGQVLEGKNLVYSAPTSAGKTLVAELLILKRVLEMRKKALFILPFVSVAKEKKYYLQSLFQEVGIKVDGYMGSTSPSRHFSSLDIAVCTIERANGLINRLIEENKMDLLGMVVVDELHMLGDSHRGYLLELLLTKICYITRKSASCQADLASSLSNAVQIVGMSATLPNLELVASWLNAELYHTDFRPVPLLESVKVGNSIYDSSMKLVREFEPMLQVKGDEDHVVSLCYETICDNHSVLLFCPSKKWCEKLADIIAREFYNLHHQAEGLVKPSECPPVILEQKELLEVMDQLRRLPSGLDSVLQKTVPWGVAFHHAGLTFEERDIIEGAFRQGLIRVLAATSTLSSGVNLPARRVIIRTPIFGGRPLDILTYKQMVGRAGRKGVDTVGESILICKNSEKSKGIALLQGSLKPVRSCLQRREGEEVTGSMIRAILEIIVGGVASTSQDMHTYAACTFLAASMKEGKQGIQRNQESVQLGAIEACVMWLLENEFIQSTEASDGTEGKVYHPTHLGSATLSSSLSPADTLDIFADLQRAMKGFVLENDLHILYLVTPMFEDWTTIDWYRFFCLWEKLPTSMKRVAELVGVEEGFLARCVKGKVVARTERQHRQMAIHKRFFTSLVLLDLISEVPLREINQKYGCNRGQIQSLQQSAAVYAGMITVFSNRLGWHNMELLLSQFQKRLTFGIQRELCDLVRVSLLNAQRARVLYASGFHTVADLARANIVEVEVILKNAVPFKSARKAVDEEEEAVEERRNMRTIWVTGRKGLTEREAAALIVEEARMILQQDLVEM

pIC50	Compound
> 7.00	COc1cnc(Cl)cc1-c1cc(C)ncc1C(=O)Nc1nc2cnc(N3CCC(O)CC3)nc2s1 [Example 33, 2′-chloro-N-[5-(4-hydroxypiperidin-1-yl)-[1,3]thiazolo[5,4-d]pyrimidin-2-yl]-5′-methoxy-6-methyl-[4,4′-bipyridine]-3-carboxamide]
> 7.00	COc1cnc(Cl)cc1-c1cc(C)ncc1C(=O)Nc1nc2cnc(Cl)cc2s1 [Example 64, 2′-chloro-N-{6-chloro-[1,3]thiazolo[4,5-c]pyridin-2-yl}-5′-methoxy-6-methyl-[4,4′-bipyridine]-3-carboxamide]
> 7.00	COc1cnc(Cl)cc1-c1cc(C)ncc1C(=O)Nc1nc2cnc(N3CC(O)C3)nc2s1 [Example 31, 2′-chloro-N-[5-(3-hydroxyazetidin-1-yl)-[1,3]thiazolo[5,4-d]pyrimidin-2-yl]-5′-methoxy-6-methyl-[4,4′-bipyridine]-3-carboxamide]
6.00 to 7.00	COc1cnc(Cl)cc1-c1cc(C)ncc1C(=O)Nc1nc2ccc(N)cc2s1 [Example 36A, N-(6-amino-1,3-benzothiazol-2-yl)-4-(2-chloro-5-methoxy-4-pyridyl)-6-methyl-pyridine-3-carboxamide]
> 7.00	COc1cnc(Cl)cc1-c1cc(C)ncc1C(=O)Nc1nc2cnc(N[C@@H]3CC[C@H](O)C3)nc2s1 (racemic) [Example 49, rac-2′-chloro-N-(5-{[(1R,3S)-3-hydroxycyclopentyl]amino}-[1,3]thiazolo[5,4-d]pyrimidin-2-yl)-5′-methoxy-6-methyl-[4,4′-bipyridine]-3-carboxamide]
> 7.00	COc1cnc(Cl)cc1-c1cc(C)ncc1C(=O)Nc1nc2cnc(N3CCCCC3=O)cc2s1 [Example 61, 2′-chloro-5′-methoxy-6-methyl-N-[6-(2-oxopiperidin-1-yl)-[1,3]thiazolo[4,5-c]pyridin-2-yl]-[4,4′-bipyridine]-3-carboxamide]
6.00 to 7.00	COc1cnc(Cl)cc1-c1cc(C)ncc1C(=O)Nc1nc2ccc(C3(O)CCOC3)cc2s1 (centres unmarked) [Example 40, 2′-chloro-N-[6-(3-hydroxyoxolan-3-yl)-1,3-benzothiazol-2-yl]-5′-methoxy-6-methyl-[4,4′-bipyridine]-3-carboxamide]
> 7.00	COc1cnc(Cl)cc1-c1cc(C)ncc1C(=O)Nc1nc2ccc(N3CCNC3=O)cc2s1 [Example 60, 2′-chloro-5′-methoxy-6-methyl-N-[6-(2-oxoimidazolidin-1-yl)-1,3-benzothiazol-2-yl]-[4,4′-bipyridine]-3-carboxamide]
> 7.00	COc1cnc(Cl)cc1-c1cc(C)ncc1C(=O)Nc1nc2ccc(N3CCOCC3)cc2s1 [Example 17, 2′-chloro-5′-methoxy-6-methyl-N-[6-(morpholin-4-yl)-1,3-benzothiazol-2-yl]-[4,4′-bipyridine]-3-carboxamide]
< 6.00	COc1ccccc1-c1cnccc1C(=O)Nc1nc2cc(C(F)(F)F)ccc2s1 [Example 12, 3-(2-methoxyphenyl)-N-[5-(trifluoromethyl)-1,3-benzothiazol-2-yl]pyridine-4-carboxamide]
> 7.00	COc1ncc2nc(NC(=O)c3cnc(C)cc3-c3cc(Cl)ncc3OC)sc2n1 [Example 75, 2′-chloro-5′-methoxy-N-{5-methoxy-[1,3]thiazolo[5,4-d]pyrimidin-2-yl}-6-methyl-[4,4′-bipyridine]-3-carboxamide]
> 7.00	COc1cnc(Cl)cc1-c1cc(C)ncc1C(=O)Nc1nc2cnc(C3=CCOCC3)nc2s1 [Example 87, 2′-chloro-N-[5-(3,6-dihydro-2H-pyran-4-yl)-[1,3]thiazolo[5,4-d]pyrimidin-2-yl]-5′-methoxy-6-methyl-[4,4′-bipyridine]-3-carboxamide]
> 7.00	COc1cnc(Cl)cc1-c1cc(C)ncc1C(=O)Nc1nc2ccc(SC)cc2s1 [Example 43, 2′-chloro-5′-methoxy-6-methyl-N-[6-(methylsulfanyl)-1,3-benzothiazol-2-yl]-[4,4′-bipyridine]-3-carboxamide]
> 7.00	COc1cnc(Cl)cc1-c1cc(C)ncc1C(=O)Nc1nc2ccc(N3CC[C@@H](O)CC3=O)cc2s1 [Example 85, 2′-chloro-N-{6-[(4R)-4-hydroxy-2-oxopiperidin-1-yl]-1,3-benzothiazol-2-yl}-5′-methoxy-6-methyl-[4,4′-bipyridine]-3-carboxamide]

Second part, the compound before the results:

Compound	pIC50
COc1cnc(Cl)cc1-c1cc(C)ncc1C(=O)Nc1nc2cnc(C(F)(F)F)nc2s1 [Example 90, 2′-chloro-5′-methoxy-6-methyl-N-[5-(trifluoromethyl)-[1,3]thiazolo[5,4-d]pyrimidin-2-yl]-[4,4′-bipyridine]-3-carboxamide]	> 7.00
COc1cnc(Cl)cc1-c1cc(C)ncc1C(=O)Nc1nc2cnc(N3CCN(C)CC3)nc2s1 [Example 28, 2′-chloro-5′-methoxy-6-methyl-N-[5-(4-methylpiperazin-1-yl)-[1,3]thiazolo[5,4-d]pyrimidin-2-yl]-[4,4′-bipyridine]-3-carboxamide]	> 7.00
COc1cnc(Cl)cc1-c1cc(C)ncc1C(=O)Nc1nc2cnc(N3CCCCC3)nc2s1 [Example 20, 2′-chloro-5′-methoxy-6-methyl-N-[5-(piperidin-1-yl)-[1,3]thiazolo[5,4-d]pyrimidin-2-yl]-[4,4′-bipyridine]-3-carboxamide]	> 7.00
COc1cnc(Cl)cc1-c1cc(C)ncc1C(=O)Nc1nc2ccc(N3CCOCC3=O)cc2s1 [Example 57, 2′-chloro-5′-methoxy-6-methyl-N-[6-(3-oxomorpholin-4-yl)-1,3-benzothiazol-2-yl]-[4,4′-bipyridine]-3-carboxamide]	> 7.00
COc1cnc(Cl)cc1-c1cc(C)ncc1C(=O)Nc1nc2ccc(-c3ccc(Cl)cn3)cc2s1 [Example 38, 2′-chloro-N-[6-(5-chloropyridin-2-yl)-1,3-benzothiazol-2-yl]-5′-methoxy-6-methyl-[4,4′-bipyridine]-3-carboxamide]	> 7.00
COc1cnc(Cl)cc1-c1cc(C)ncc1C(=O)Nc1nc2cnc(N3CCC(OC)C3)nc2s1 (centres unmarked) [Example 32, 2′-chloro-5′-methoxy-N-[5-(3-methoxypyrrolidin-1-yl)-[1,3]thiazolo[5,4-d]pyrimidin-2-yl]-6-methyl-[4,4′-bipyridine]-3-carboxamide]	> 7.00
COc1cnc(Cl)cc1-c1cc(C)ncc1C(=O)Nc1nc2cnc(N3CCOC[C@H]3C)nc2s1 [Example 50, 2′-chloro-5′-methoxy-6-methyl-N-{5-[(3R)-3-methylmorpholin-4-yl]-[1,3]thiazolo[5,4-d]pyrimidin-2-yl}-[4,4′-bipyridine]-3-carboxamide]	> 7.00
COc1cnc(Cl)cc1-c1cc(C)ncc1C(=O)Nc1nc2ccc(N3CCN(C)C3=O)cc2s1 [Example 58, 2′-chloro-5′-methoxy-6-methyl-N-[6-(3-methyl-2-oxoimidazolidin-1-yl)-1,3-benzothiazol-2-yl]-[4,4′-bipyridine]-3-carboxamide]	> 7.00

same assay, conditions: Table B; compounds of Experimental Part B, in vitro; read-out: Polθ ATPase assay IC50

pIC50	Compound
> 7.00	COc1cnc(Cl)cc1-c1cc(C)ncc1C(=O)Nc1nc2c(CCC(=O)N(C)C)cccc2s1 [Example 100, 2′-chloro-N-{4-[2-(dimethylcarbamoyl)ethyl]-1,3-benzothiazol-2-yl}-5′-methoxy-6-methyl-[4,4′-bipyridine]-3-carboxamide]
6.00 to 7.00	CCOc1ccc2sc(NC(=O)c3cnc(C)cc3-c3cc(Cl)ncc3OC)nc2c1 [Example 114, 2′-chloro-N-(5-ethoxy-1,3-benzothiazol-2-yl)-5′-methoxy-6-methyl-[4,4′-bipyridine]-3-carboxamide]
> 7.00	COc1cnc(Cl)cc1-c1cc(C)ncc1C(=O)Nc1nc2cc(OC(F)(F)C(=O)N(C)C)ccc2s1 [Example 104, 2′-chloro-N-{5-[(dimethylcarbamoyl)difluoromethoxy]-1,3-benzothiazol-2-yl}-5′-methoxy-6-methyl-[4,4′-bipyridine]-3-carboxamide]

Further lines, the compound ahead of its results:

Compound	pIC50
COCCNC(=O)c1ccc2sc(NC(=O)c3cnc(C)cc3-c3cc(Cl)ncc3OC)nc2c1 [Example 107, 2′-chloro-5′-methoxy-N-{5-[(2-methoxyethyl)carbamoyl]-1,3-benzothiazol-2-yl}-6-methyl-[4,4′-bipyridine]-3-carboxamide]	> 7.00
COc1cnc(Cl)cc1-c1cc(C)ncc1C(=O)Nc1nc2c(OCC(=O)N(C)C)ncnc2s1 [Example 108, 2′-chloro-N-{7-[(dimethylcarbamoyl)methoxy]-[1,3]thiazolo[5,4-d]pyrimidin-2-yl}-5′-methoxy-6-methyl-[4,4′-bipyridine]-3-carboxamide]	> 7.00
COc1cnc(Cl)cc1-c1cc(C)ncc1C(=O)Nc1nc2cnc(NC[C@@H](C)O)nc2s1 [Example 95, 2′-chloro-N-(5-{[(2R)-2-hydroxypropyl]amino}-[1,3]thiazolo[5,4-d]pyrimidin-2-yl)-5′-methoxy-6-methyl-[4,4′-bipyridine]-3-carboxamide]	> 7.00
COc1cnc(Cl)cc1-c1cc(C)ncc1C(=O)Nc1nc2cc(OCC#N)ccc2s1 [Example 101, 2′-chloro-N-[5-(cyanomethoxy)-1,3-benzothiazol-2-yl]-5′-methoxy-6-methyl-[4,4′-bipyridine]-3-carboxamide]	> 7.00
